We go through 39 compounds from patent US9067922B2, “Chemical compounds” (Pfizer Limited, priority 2013, dated 2015).

For this assay, the target named is URAT-1 transporter (Homo sapiens (Human), UniProt Q96S37). The experiment in a line: URAT-1 inhibitor activity: [14C]-uric acid uptake in CHO-URAT1(L)GFP#8 (CHO#8) cells, scintillation proximity. It is filed as cell-based. The following applies: inhibition of [14C]-uric acid (30 nM) uptake into CHO#8 cells; compound 0 to 10 μM; 4 parameter logistic fit. An outline of the steps: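 CHO cells stably expressing human URAT1 long isoform–eGFP fusion, pre-incubated 1 h in chloride-containing buffer pH 7.4, then given 30 nM [14C]-uric acid with compound (0–10 μM, 0.25% DMSO) in chloride-free gluconate buffer pH 7.4. Uptake measured by scintillation proximity on Cytostar plates.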
Sequence of URAT-1 transporter (Q96S37 other isoform, or with tags, fused parts or gaps): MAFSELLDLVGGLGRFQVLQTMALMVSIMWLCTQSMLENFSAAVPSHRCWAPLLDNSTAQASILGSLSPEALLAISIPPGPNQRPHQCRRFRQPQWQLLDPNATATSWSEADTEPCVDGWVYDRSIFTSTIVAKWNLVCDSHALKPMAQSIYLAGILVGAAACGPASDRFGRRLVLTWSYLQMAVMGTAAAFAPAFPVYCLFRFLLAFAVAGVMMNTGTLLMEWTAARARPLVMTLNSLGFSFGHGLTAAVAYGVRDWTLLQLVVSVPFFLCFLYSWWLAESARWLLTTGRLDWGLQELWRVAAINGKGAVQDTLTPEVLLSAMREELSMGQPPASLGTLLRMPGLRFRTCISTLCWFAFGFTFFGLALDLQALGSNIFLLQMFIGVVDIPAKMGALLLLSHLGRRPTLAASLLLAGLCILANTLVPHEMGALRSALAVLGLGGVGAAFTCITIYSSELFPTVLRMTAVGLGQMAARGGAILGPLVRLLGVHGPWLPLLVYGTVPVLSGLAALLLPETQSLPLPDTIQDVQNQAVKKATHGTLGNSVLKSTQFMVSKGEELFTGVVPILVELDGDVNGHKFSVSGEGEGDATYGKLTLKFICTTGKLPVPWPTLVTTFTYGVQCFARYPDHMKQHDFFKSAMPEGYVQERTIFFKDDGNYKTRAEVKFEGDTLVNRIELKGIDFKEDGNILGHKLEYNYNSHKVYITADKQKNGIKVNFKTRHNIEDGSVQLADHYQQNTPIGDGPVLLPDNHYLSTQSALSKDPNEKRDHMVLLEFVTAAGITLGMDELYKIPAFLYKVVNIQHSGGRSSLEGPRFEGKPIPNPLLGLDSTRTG
(Scintillation proximity formats need no separation of bound from free tracer.)

As a reminder, the IC50 is the concentration needed to halve the response being measured. Read a low IC50 as inhibition by little substance. With `N#Cc1ccc(Oc2ccc(S(=O)(=O)Nc3ccnnc3)cc2C#N)cc1Cl` [Example 94, 4-(3-chloro-4-cyanophenoxy)-3-cyano-N-(pyridazin-4-yl)benzenesulfonamide], the IC50 is more than 10000 nM. For `N#Cc1cc(S(=O)(=O)Nc2ccc(F)cn2)ccc1Oc1c(F)cccc1F` [Example 124, 3-cyano-4-(2,6-difluorophenoxy)-N-(5-fluoropyridin-2-yl)benzenesulfonamide] the value was more than 10000 nM; for `N#Cc1cc(S(=O)(=O)Nc2ccc(F)cn2)ccc1Oc1ccc(N)cc1` [Example 224, 4-(4-aminophenoxy)-3-cyano-N-(5-fluoropyridin-2-yl)benzenesulfonamide], more than 10000 nM; for `N#Cc1cc(S(=O)(=O)Nc2ccc(F)cn2)ccc1Oc1ccc(C#N)c(C(F)(F)F)c1` [Example 6, 3-cyano-4-[4-cyano-3-(trifluoromethyl)phenoxy]-N-(5-fluoropyridin-2-yl)benzenesulfonamide], 267 nM. The value for `N#Cc1ccc(Oc2ccc(S(=O)(=O)Nc3cccnn3)cc2C#N)cc1Cl` [Example 98, 4-(3-chloro-4-cyanophenoxy)-3-cyano-N-(pyridazin-3-yl)benzenesulfonamide] was 3870 nM; that for `Cc1cc(Oc2ccc(S(=O)(=O)Nc3ccc(F)cn3)cc2C#N)cc(C)c1C#N` [Example 79, 3-cyano-4-(4-cyano-3,5-dimethylphenoxy)-N-(5-fluoropyridin-2-yl)benzenesulfonamide] was 7 nM; that for `N#Cc1cc(S(=O)(=O)Nc2ccc(F)cn2)ccc1Oc1cccc(C#N)c1Cl` [Example 64, 4-(2-chloro-3-cyanophenoxy)-3-cyano-N-(5-fluoropyridin-2-yl)benzenesulfonamide] was more than 1130 nM. For `CC(C)(C)c1cc(Oc2ccc(S(=O)(=O)Nc3ccc(F)cn3)cc2C#N)ccc1C#N` [Example 161, 4-(3-tert-butyl-4-cyanophenoxy)-3-cyano-N-(5-fluoropyridin-2-yl)benzenesulfonamide] the value was more than 10000 nM; for `N#Cc1ccc(Oc2ccc(S(=O)(=O)Nc3cncnc3)cc2C#N)cc1Cl` [Example 96, 4-(3-chloro-4-cyanophenoxy)-3-cyano-N-(pyrimidin-5-yl)benzenesulfonamide], more than 10000 nM; for `Cc1cc(Cl)cc(Oc2ccc(S(=O)(=O)Nc3ccc(F)cn3)cc2C#N)c1C` [Example 159, 4-(5-chloro-2,3-dimethylphenoxy)-3-cyano-N-(5-fluoropyridin-2-yl)benzenesulfonamide], 514 nM. `Cc1cc(Oc2ccc(S(=O)(=O)Nc3ccc(F)cn3)cc2C#N)ccc1Cl` [Example 34, 4-(4-chloro-3-methylphenoxy)-3-cyano-N-(5-fluoropyridin-2-yl)benzenesulfonamide] yielded an IC50 of 80 nM. Against the preceding compound, the IC50 is about 6.4-fold lower. The value for `COc1ncc(Oc2ccc(S(=O)(=O)Nc3ccc(F)cn3)cc2C#N)cc1Cl` [Example 70, 4-[(5-chloro-6-methoxypyridin-3-yl)oxy]-3-cyano-N-(5-fluoropyridin-2-yl)benzenesulfonamide] was 25 nM. The value for `COc1cccnc1NS(=O)(=O)c1ccc(Oc2ccc(C#N)c(Cl)c2)c(C#N)c1` [Example 102, 4-(3-chloro-4-cyanophenoxy)-3-cyano-N-(3-methoxypyridin-2-yl)benzenesulfonamide] was 3130 nM; that for `Cc1ccc(F)c(Oc2ccc(S(=O)(=O)Nc3ccc(F)cn3)cc2C#N)c1F` [Example 119, 3-cyano-4-(2,6-difluoro-3-methylphenoxy)-N-(5-fluoropyridin-2-yl)benzenesulfonamide] was 90 nM; that for `Cc1ccc(F)c(Oc2ccc(S(=O)(=O)Nc3ccc(F)cn3)cc2C#N)c1Cl` [Example 108, 4-(2-chloro-6-fluoro-3-methylphenoxy)-3-cyano-N-(5-fluoropyridin-2-yl)benzenesulfonamide] was 98 nM. For `N#Cc1cc(S(=O)(=O)Nc2ccc(F)cn2)ccc1Oc1cc(F)ccc1Cl` [Example 176, 4-(2-chloro-5-fluorophenoxy)-3-cyano-N-(5-fluoropyridin-2-yl)benzenesulfonamide] the value was 1020 nM.

For `COc1cc(C)cc(Oc2ccc(S(=O)(=O)Nc3ccc(F)cn3)cc2C#N)c1` [Example 182, 3-cyano-N-(5-fluoropyridin-2-yl)-4-(3-methoxy-5-methylphenoxy)benzenesulfonamide], the IC50 was determined as 175 nM. The value for `COc1ccc(Oc2ccc(S(=O)(=O)Nc3ccc(F)cn3)cc2C#N)cc1Cl` [Example 148, 4-(3-chloro-4-methoxyphenoxy)-3-cyano-N-(5-fluoropyridin-2-yl)benzenesulfonamide] was 53 nM. For `N#Cc1cc(S(=O)(=O)Nc2ccc(F)cn2)ccc1Oc1ccc(F)cc1` [Example 183, 3-cyano-4-(4-fluorophenoxy)-N-(5-fluoropyridin-2-yl)benzenesulfonamide] the value was 183 nM. The value for `Cc1cc(Oc2ccc(S(=O)(=O)Nc3ccc(F)cn3)cc2C#N)c(Cl)cc1Cl` [Example 109, 3-cyano-4-(2,4-dichloro-5-methylphenoxy)-N-(5-fluoropyridin-2-yl)benzenesulfonamide] was 892 nM.

For the compound `CCc1ccccc1Oc1ccc(S(=O)(=O)Nc2ccc(F)cn2)cc1C#N` [Example 46, 3-cyano-4-(2-ethylphenoxy)-N-(5-fluoropyridin-2-yl)benzenesulfonamide], the IC50 amounted to 107 nM. The value for `Cc1ccnc(NS(=O)(=O)c2ccc(Oc3cccc(Cl)c3C#N)cc2)n1` [Example 220, 4-(3-chloro-2-cyanophenoxy)-N-(4-methylpyrimidin-2-yl)benzenesulfonamide] was more than 10000 nM; that for `N#Cc1ccc(Oc2ccc(S(=O)(=O)Nc3ccc(F)cn3)cc2C#N)cc1Cl` [Example 1, 4-(3-chloro-4-cyanophenoxy)-3-cyano-N-(5-fluoropyridin-2-yl)benzenesulfonamide] was 13 nM; that for `CC(C)c1ncc(Oc2ccc(S(=O)(=O)Nc3ccc(F)cn3)cc2C#N)cc1Cl` [Example 117, 4-{[5-chloro-6-(propan-2-yl)pyridin-3-yl]oxy}-3-cyano-N-(5-fluoropyridin-2-yl)benzenesulfonamide] was more than 10000 nM.

As to `CSc1ccccc1Oc1ccc(S(=O)(=O)Nc2ccc(F)cn2)cc1C#N` [Example 146, 3-cyano-N-(5-fluoropyridin-2-yl)-4-[2-(methylsulfanyl)phenoxy]benzenesulfonamide], the 50% inhibitory concentration (IC50) worked out at 506 nM. For `N#Cc1cncc(Oc2ccc(S(=O)(=O)Nc3ccc(F)cn3)cc2C#N)c1` [Example 206, 3-cyano-4-[(5-cyanopyridin-3-yl)oxy]-N-(5-fluoropyridin-2-yl)benzenesulfonamide], it took 1080 nM to reach half-maximal inhibition (IC50). `N#Cc1cc(S(=O)(=O)Nc2ccc(F)cn2)ccc1Oc1ccc(C(F)(F)F)nc1` [Example 196, 3-cyano-N-(5-fluoropyridin-2-yl)-4-{[6-(trifluoromethyl)pyridin-3-yl]oxy}benzenesulfonamide] had an IC50 of more than 10000 nM. For `COc1ccc(Cl)c(Oc2ccc(S(=O)(=O)Nc3ccc(F)cn3)cc2C#N)c1` [Example 44, 4-(2-chloro-5-methoxyphenoxy)-3-cyano-N-(5-fluoropyridin-2-yl)benzenesulfonamide] the value was 167 nM; for `Cc1cc(Cl)ccc1Oc1ccc(S(=O)(=O)Nc2ccc(F)cn2)cc1C#N` [Example 5, 4-(4-chloro-2-methylphenoxy)-3-cyano-N-(5-fluoropyridin-2-yl)benzenesulfonamide], 148 nM. For `O=S(=O)(Nc1ncccn1)c1cc(Cl)c(Oc2ccc(Cl)cc2OC(F)F)cc1F` [Example 83, 5-chloro-4-[4-chloro-2-(difluoromethoxy)phenoxy]-2-fluoro-N-(pyrimidin-2-yl)benzenesulfonamide] the value was more than 5970 nM; for `O=S(=O)(Nc1cccnn1)c1ccc(Oc2ccc(Cl)cc2OC(F)F)c(Cl)c1` [Example 84, 3-chloro-4-[4-chloro-2-(difluoromethoxy)phenoxy]-N-(pyridazin-3-yl)benzenesulfonamide], more than 8870 nM.

On to `Cc1ccc(Oc2ccc(S(=O)(=O)Nc3ccc(F)cn3)cc2C#N)c(C)c1Cl` [Example 175, 4-(3-chloro-2,4-dimethylphenoxy)-3-cyano-N-(5-fluoropyridin-2-yl)benzenesulfonamide], for which the IC50 stood at 455 nM. For `CCOc1cc(C)ccc1Oc1ccc(S(=O)(=O)Nc2ccc(F)cn2)cc1C#N` [Example 138, 3-cyano-4-(2-ethoxy-4-methylphenoxy)-N-(5-fluoropyridin-2-yl)benzenesulfonamide] the value was 9210 nM; for `COc1cccc(Oc2ccc(S(=O)(=O)Nc3ccc(F)cn3)cc2C#N)c1` [Example 208, 3-cyano-N-(5-fluoropyridin-2-yl)-4-(3-methoxyphenoxy)benzenesulfonamide], more than 10000 nM; for `N#Cc1cc(Oc2ccc(S(=O)(=O)Nc3ncccn3)cc2C#N)ccc1F` [compound 209], more than 10000 nM. The compound `COc1cc(F)cc(Oc2ccc(S(=O)(=O)Nc3ccc(F)cn3)cc2C#N)c1` [Example 8, 3-cyano-4-(3-fluoro-5-methoxyphenoxy)-N-(5-fluoropyridin-2-yl)benzenesulfonamide] returned an IC50 of 119 nM.

Compound `N#Cc1cc(S(=O)(=O)Nc2ccc(F)cn2)ccc1Oc1cccc(F)c1` [Example 52, 3-cyano-4-(3-fluorophenoxy)-N-(5-fluoropyridin-2-yl)benzenesulfonamide] showed an IC50 of 259 nM. For `N#Cc1ccc(Oc2ccc(S(=O)(=O)Nc3ccc(F)cn3)cc2C#N)cc1` [Example 10, 3-cyano-4-(4-cyanophenoxy)-N-(5-fluoropyridin-2-yl)benzenesulfonamide] the value was 74 nM; for `COc1c(F)ccc(Oc2ccc(S(=O)(=O)Nc3ccc(F)cn3)cc2C#N)c1C` [Example 165, 3-cyano-4-(4-fluoro-3-methoxy-2-methylphenoxy)-N-(5-fluoropyridin-2-yl)benzenesulfonamide], 139 nM.
